Experimental data reported in patent US20170216252A1, “ANTI-BACTERIAL PYRUVATE KINASE MODULATOR COMPOUNDS, COMPOSITIONS, USES AND METHODS” (SIMON FRASER UNIVERSITY, priority 2014, published 2017).
Values after ≈ are worked out from the molar mass of the structure shown. Values joined by “and” are separate entries in the source; they are usually repeats but may differ in a detail not shown here. Equal entries are not always repeated. Where two headings read alike, the source gives them in different places.

Assays:
S. aureus ATCC 29213 = assay: In vitro susceptibility, broth microdilution MIC; assay type: cell-based, Staphylococcus aureus; conditions: Staphylococcus aureus
Procedure, shortened: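 The MIC against S. aureus 29213 was determined by CLSI 2-fold serial broth microdilution in Mueller Hinton broth. Plates were incubated for 18–24 h at 37 °C and read at OD600 with background subtracted. The MIC was the lowest concentration giving complete growth inhibition versus compound-free wells.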

MRSA PK = target: T1, MRSA PK (Staphylococcus aureus, UniProt Q6GG09); assay: MRSA PK activity, continuous LDH-coupled assay; assay type: biochemical, S. aureus (MRSA strain Sanger 252); conditions: for inhibition at 10 µM: read-out: % Inhibition MRSA PK
T1 construct: His tag (pET-28a(+) vector) (N); made in house; host or cells: E. coli BL-21 (DE3)
T1 sequence (Q6GG09 whole entry): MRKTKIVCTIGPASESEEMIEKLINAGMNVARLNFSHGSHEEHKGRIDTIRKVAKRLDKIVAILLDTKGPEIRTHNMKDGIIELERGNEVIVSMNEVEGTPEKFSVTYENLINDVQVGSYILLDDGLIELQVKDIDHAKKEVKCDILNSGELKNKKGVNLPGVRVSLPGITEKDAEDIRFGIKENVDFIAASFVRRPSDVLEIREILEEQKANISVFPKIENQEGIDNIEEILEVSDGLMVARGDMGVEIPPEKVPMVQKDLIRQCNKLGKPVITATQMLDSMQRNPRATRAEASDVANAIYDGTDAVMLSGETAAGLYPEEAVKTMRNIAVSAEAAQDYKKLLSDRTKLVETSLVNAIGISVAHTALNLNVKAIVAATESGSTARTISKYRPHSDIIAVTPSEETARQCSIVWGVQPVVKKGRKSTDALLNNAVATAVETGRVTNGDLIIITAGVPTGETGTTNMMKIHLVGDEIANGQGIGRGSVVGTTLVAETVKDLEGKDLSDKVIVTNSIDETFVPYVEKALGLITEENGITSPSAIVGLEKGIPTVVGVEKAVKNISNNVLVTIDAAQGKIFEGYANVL
Procedure, shortened: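 Activity was tracked as the 340 nm absorbance fall from NADH oxidation via coupled LDH, at 30 °C for ≤5 min. Reactions began on adding 15 nM recombinant His-tagged S. aureus PK, with inhibitor DMSO kept ≤1%. Four-parameter dose–response fitting gave IC50.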

VRE#2 (2010A) = assay: Broth microdilution MIC; assay type: cell-based, vancomycin-resistant Enterococcus; conditions: Enterococcus; VRE#2 (2010A); read-out: MIC (μg/mL) F
Method: The antimicrobial activities of PK inhibitor candidates were determined using the 96-well microtiter standard 2-fold serial broth microdilution method as described by CLSI (formerly NCCLS) with the various gram-positive and gram-negative bacteria species mentioned above. Bacteria from a single colony were grown, overnight in either BHI Broth (VRE), mueller hinton broth (S. aureus 29213; MRSA USA400) or L-broth (E. coli, P. aeruginosa, S. typhimuriu, K. Pneumonia and A. baumannii). […] Culture plates were incubated for 18-24 h at 37° C., and optical density at 600 nm (OD600) was measured using a Benchmark Plus™ microplate spectrophotometer (Bio-Rad™). The absorbance control values for the series containing CAMHB and inhibitor were subtracted as background from the corresponding infected wells. The MIC was defined as the lowest concentration of test compound leading to complete inhibition of cell growth in relationship to compound-free control wells as determined by optical density. […] All assays were run in triplicate (Tables 1-6) or duplicate. Experiments were replicated at least twice to verify reproducibility using the above conditions.
The antimicrobial activity of selected compounds against the gram negative bacteria Klebsiella pneumoniae, Acinetobacter baumannii, E. coli, Pseudomonas aeruginosa and Salmonella typhimurium, as well as additional gram positive bacteria, including drug-resistant strains, was tested according to the procedures provided under “General Methodologies” above.

[1] = In vivo tolerability (MTD) study
Method: The MTD and pharmacokinetic profiles of compounds 123 and 178 administered IV or PO were determined in female CD-1 mice (6-8 weeks of age). Compounds were dissolved in 3% DMSO/6% Solutol® HS 15/10 mM PB (pH7.4) for IV administration and in 3% DMSO/6% Solutol® HS 15/water for oral administration.
For tolerability studies, one animal from each group was administered the lowest dose first and then observed for 60 min. […] On the following day, the next higher dose was administered using the same procedure outlined above. Animals were euthanized 24 hours after the last injection, a cardiac puncture blood sample was collected and processed for plasma. Thigh muscle was collected and a necropsy performed.

[2] = ATCC29213, Tables 1-6 and text, minimum concentration to give >98% inhibition of growth, read-out: MIC
[3] = Tables 1-6, 2 mM ADP, 10 mM PEP, 15 nM PK, read-out: IC50

Structure (SMILES) | MIC (S. aureus ATCC 29213; [2]) | IC50 (MRSA PK; [3]) | inhibition at 10 µM (MRSA PK) | melting point | MIC (S. aureus ATCC 29213; ATCC29213) | MIC (VRE#2 (2010A)) | Tolerability ([1]; IV doses of 30 mg/kg) | Tolerability ([1]; PO doses of 10 mg/kg) | MIC (S. aureus ATCC 29213; ATCC29213, S. aureus (ATCC29213), Table 9, read-out: MIC (μg/mL) H) | IC50 (MRSA PK)
Brc1ccc2[nH]c(-c3cc4cc(Br)ccc4[nH]3)cc2c1 [Compound 10i, 5,5′-Bibromo-1H,1′H-2,2′-biindole] | > 64 µg/mL | 3 nM | 71% | 304 to 306 °C |  |  |  |  |  | 
Brc1ccc2[nH]c(C#Cc3cc4ccc(Br)cc4[nH]3)cc2c1 [Compound 25c, 6-Bromo-2-((5-bromo-1H-indol-2-yl)ethynyl)-1H-indole] | 16 µg/mL (≈ 38.6 µM) | 4.7 nM | 86.3% | 236 to 237 °C |  |  |  |  |  | 
OCCn1c(-c2cc3ccc(Br)cc3[nH]2)cc2cc(Br)ccc21 [Compound 17, 2-(5,6′-Dibromo-1H, 1′H-[2,2′-biindol]-1-yl)ethanol] | 2 µg/mL (≈ 4.61 µM) | 1.3 nM | 101% |  |  |  |  |  |  | 
Brc1ccc2cc(-c3cc4cc(Br)c(Br)cc4[nH]3)[nH]c2c1 [Compound 10k, 5,6,6′-Tribromo-1H,1′H-2,2′-biindole] | 0.5 µg/mL (≈ 1.07 µM) | 1.5 nM | 94.1% |  |  |  |  |  |  | 
Brc1ccc2cc(-c3cc4ccccc4o3)[nH]c2c1 [Compound 22b, 2-(Benzofuran-2-yl)-6-bromo-1H-indole] | > 64 µg/mL | 108 nM | 95.9% | 196 to 198 °C |  |  |  |  |  | 
Brc1cc2cc(-c3cc4cc(Br)c(Br)cc4[nH]3)[nH]c2cc1Br [Compound 10l, 5,5′,6,6′-Tetrabromo-1H,1′H-2,2′-biindole] |  | 2 nM | 97.6% |  | > 64 µg/mL |  |  |  |  | 
CN1CCN(CCn2c(-c3cc4ccc(Br)cc4[nH]3)cc3cc(Br)ccc32)CC1 [Compound 20a, 5,6′-Dibromo-1-(2-(4-methylpiperazin-1-yl)ethyl)-1H,1′H-2,2′-biindole] | 4 µg/mL (≈ 7.75 µM) | 2 nM | 100% | 140 °C |  |  |  |  |  | 
Brc1ccc2[nH]c(-c3cc4ccc(Br)cc4[nH]3)cc2c1 [Compound 10c, 5,6-Bibromo-1H,1′H-2,2′-biiindole] | 0.3 µg/mL (≈ 0.769 µM) | 2.2 nM | 97.8% | 270 to 272 °C |  |  |  |  |  | 
COc1cc(-c2cc3ccccc3[nH]2)ccc1-c1cc2ccc(Br)cc2[nH]1 [Compound 33e, 2-(4-(1H-indol-2-yl)-2-methoxyphenyl)-6-bromo-1H-indole] | > 64 µg/mL | 2.1 nM | 62.2% |  |  |  |  |  |  | 
Cn1c(-c2cc3ccc(Br)cc3[nH]2)cc2cc(Br)ccc21 [Compound 12a, 5,6′-Dibromo-1-methyl-1H,1′H-2,2′-biindole] | > 64 µg/mL | 1 nM | 99% | 180 to 182 °C |  |  |  |  |  | 
O=C(c1c(-c2cc3cc(Cl)ccc3[nH]2)[nH]c2cc(Br)ccc12)C(F)(F)F [Compound 178, 1-(6-bromo-5′-chloro-1H,1′H-[2,2′-biindol]-3-yl)-2,2,2-trifluoroethan-1-one] |  |  |  |  |  | 1 µg/mL (≈ 2.26 µM) | well tolerated | well tolerated | 1 µg/mL (≈ 2.26 µM) | < 50 nM
Brc1ccc2cc(/C=C/c3cc4ccccc4[nH]3)[nH]c2c1 [Compound 27a, (E)-2-(2-(1H-indol-2-yl)vinyl)-6-bromo-1H-indole] | > 64 µg/mL | 4.5 nM | 93.4% |  |  |  |  |  |  | 
Brc1ccc2cc(CCc3cc4ccc(Br)cc4[nH]3)[nH]c2c1 [Compound 28a, 1,2-bis(6-bromo-1H-indol-2-yl)ethane] | > 64 µg/mL | 6 nM and 6.5 nM | 93.4% |  |  |  |  |  |  | 
Brc1ccc2c(c1)cc(-c1cc3ccc(Br)cc3[nH]1)n2CCN1CCOCC1 [Compound 20b, 4-(2-(5,6′-dibromo-1H,1′H-[2,2′-biindol]-1-yl)ethyl)morpholine] | > 64 µg/mL | 1.2 nM | 101% |  |  |  |  |  |  | 
Brc1ccc2cc(-c3cc4ccc(Br)cc4[nH]3)[nH]c2c1 [Compound 10b, 6,6′-Dibromo-1H,1′H-2,2′-biindole] | 16 µg/mL (≈ 41 µM) | 7 nM | 84.9% | 266 to 267 °C |  |  |  |  |  | 
Brc1ccc2cc(-c3nc4ccccc4s3)[nH]c2c1 [Compound 22a, 2-(6-Bromo-1H-indol-2-yl)benzo[d]thiazole] | > 64 µg/mL | 152 nM | 89.8% |  |  |  |  |  |  | 
